Measured values as given in PubChem BioAssay AID2305 (GlaxoSmithKline (GSK), 2010).

system: P. falciparum 3D7 growth, pLDH absorbance; assay: P. falciparum 3D7 growth inhibition, dose response, strain 3D7 (AID 2305)

`CC(CN1CCN(C)CC1)C(=O)Nc1cccc(-c2ccc(-c3nc4ccc(F)cc4[nH]3)cc2)c1` (stereo unspecified) and `CN1CCC(C(=O)Nc2cccc(-c3ccc(-c4nc5ccccc5[nH]4)cc3)c2)CC1` are within 1.5-fold of each other in IC50: 810 nM for the first, 1090 nM for the second.

Compared with `CN(C)c1ccc(-c2ccc(C(=O)NC3CCN(Cc4ccccc4F)CC3)s2)cc1`, `O=C(/C=C/c1ccc(-c2nc3ccc(Cl)cc3[nH]2)cc1)NC1CCN(Cc2ccccc2)CC1` is 2.3-fold lower in IC50: 1400 nM for the first, 610 nM for the second.

Going from `CCCCOc1c(CCNCCCCNCCc2cc(F)c3ccccc3c2OCCCC)cc(F)c2ccccc12` to `COc1ccc(NCc2cccc(-c3cccc(CNCCc4ccccc4)c3)c2)cc1`, the IC50 rises from 630 nM to 1050 nM (1.7-fold). The first is the more potent here.

`COC(=O)Nc1nc2cc3c(cc2s1)OCCO3` and `COc1ccc2ncc(C#N)c(CCN3CCC(NCc4ccc5c(c4)OCCO5)CC3)c2c1` are within 1.5-fold of each other in IC50: 840 nM for the first, 910 nM for the second.

`CC(Cc1ccc(CN(CC(N)=O)Cc2ccc(CC(C)NCCc3cccc(Cl)c3)cc2)cc1)NCCc1cccc(Cl)c1` (stereo unspecified) and `CC(C)CNCc1ccc(-c2ccc(CNC3CCN(Cc4ccccc4)CC3)cc2)cc1` are within 1.5-fold of each other in IC50: 670 nM for the first, 560 nM for the second.

`CN1CCc2ccc(NC(=O)Nc3ccc(Cl)c(Cl)c3)cc2C1` and `O=C(Nc1ccc(Cl)c(Cl)c1)Nc1ccc2c(c1)CCNCC2` are within 1.5-fold of each other in IC50: 720 nM for the first, 530 nM for the second.

Compared with `O=C(C=Cc1cccs1)N(CCCn1ccnc1)c1nc2ccc(F)cc2s1`, `CCN(CC)CCCN(C(=O)Nc1ccc(C#N)cc1)c1nc(-c2ccc(F)cc2)cs1` is 2.5-fold lower in IC50: 1600 nM for the first, 650 nM for the second. The second is the more potent here.

Compared with `O=C(/C=C/c1ccc(Cl)cc1)Nc1ccc2nc(CN3CCCC3)ccc2c1`, `O=C(Nc1cccc(-c2ccc(CN3CCC(O)CC3)cc2)c1)c1ccc(Cl)cc1` is 12-fold higher in IC50: 80 nM for the first, 960 nM for the second.

`N#Cc1ccc(-c2ccc(C(=O)NCCCCN3CCC(c4cc(Br)c5c(c4OCC(N)=O)CCCC5)CC3)cc2)cc1` and `COc1c(C2CCN(CCCCNC(=O)c3ccc(-c4ccc(Cl)cc4)c(OCC(N)=O)c3)CC2)ccc2c1CCCC2` are within 1.5-fold of each other in IC50: 800 nM for the first, 1010 nM for the second.

`CCOc1cc2ncnc(Nc3cc(Cl)c(Cl)c(Cl)c3)c2cc1OCC` and `COc1cc2nc(NCc3ccccc3)nc(NCc3ccccc3)c2cc1OC` are within 1.5-fold of each other in IC50: 200 nM for the first, 150 nM for the second.

`Cc1ccc(CC(C)NCC(O)c2cccc(C(F)(F)F)c2)cc1F` (stereo unspecified) and `Cc1cc(NN=Cc2cccc([N+](=O)[O-])c2)c2ccc(C(F)(F)F)cc2n1` are within 1.5-fold of each other in IC50: 920 nM for the first, 880 nM for the second.

`Cc1cc(N2CCCN(C)CC2)nc(Nc2ccc(Br)cc2)n1` and `COc1cccc(C(=O)Nc2ccc(Nc3nc(C)cc(N4CCCCC4)n3)cc2)c1OC` are within 1.5-fold of each other in IC50: 720 nM for the first, 1020 nM for the second.

`Cc1ccc(NC(=O)c2ccc3ncccc3c2)cc1OC1CCN(CCC(C)C)C1` (stereo unspecified) and `CN(c1cc(NC(=O)c2ccc(F)cc2)ccn1)C1CCN(Cc2cccc(F)c2)CC1` are within 1.5-fold of each other in IC50: 350 nM for the first, 490 nM for the second.

`CSc1cccc(NC(=O)c2cc3ccccc3oc2=O)c1` and `Cc1cc(Nc2cccc(C#N)c2)nc(Nc2ccccc2C)n1` are within 1.5-fold of each other in IC50: 830 nM for the first, 860 nM for the second.

Compared with `CC(C)(C)c1ccc(CN2CCC(CNC(=O)c3cc(-c4cccc(Cl)c4)cs3)C2)cc1` (stereo unspecified), `COc1ccc(-c2cccc(NC(=O)c3cccs3)c2)cc1CN1CCCN(C)CC1` is 1.7-fold lower in IC50: 1160 nM for the first, 700 nM for the second.

`CC(C)COc1ccc(Cl)cc1Cc1ccc(-c2nc3cc(F)c(F)cc3[nH]2)o1` and `OC1CCCN(Cc2ccc(-c3ccc(-c4nc5ccc(F)cc5[nH]4)cc3)cc2)C1` (stereo unspecified) are within 1.5-fold of each other in IC50: 890 nM for the first, 850 nM for the second.

Compared with `COc1ccc(OCCCN2CCN(CC(c3ccc(F)cc3)N3CCN(C(C)C)CC3)CC2)c2ccccc12` (stereo unspecified), `CC(C)c1ccc(-c2noc(SCC(=O)N(C)c3ccc(F)cc3)n2)cc1` is 1.8-fold higher in IC50: 650 nM for the first, 1170 nM for the second. The first is the more potent here.

Compared with `O=C(NOCCOc1ccccc1)c1ccccc1`, `CCC(CC)OC(=O)C(C)c1cccc(C(=O)c2ccccc2)c1` (stereo unspecified) is 2.6-fold higher in IC50: 320 nM for the first, 830 nM for the second.

First: Clc1ccc(Nc2nc3ccc(Cl)cc3nc2Nc2ccc(Cl)cc2)cc1
Second: O=[N+]([O-])c1ccc2nc(Nc3cccc(C(F)(F)F)c3)c(Nc3cccc(C(F)(F)F)c3)nc2c1
The IC50 of the first is 3.7-fold lower: 130 nM for the first, 480 nM for the second. The first is the more potent here.

Going from `Cc1cccc(Cn2nc(-c3ccccc3)c(N3CCCCC3)cc2=O)c1` to `Cc1cccc(-c2nn(-c3ccccc3)c3[nH]c(=O)c(CN4CCSCC4)cc23)c1`, the IC50 rises from 460 nM to 1010 nM (2.2-fold).

`O=C(Nc1ccc(C(F)(F)F)cc1)N[C@H]1CCN(CCCCCNC(=O)[C@@H]2C[C@H]2c2ccc(Cl)c(Cl)c2)C1` and `CCc1ccc(C2CCN(CCCCNC(=O)c3ccc(NC(=O)c4ccc(Cl)cc4)cc3)CC2)c(OCC(=O)OC)c1` are within 1.5-fold of each other in IC50: 1100 nM for the first, 1030 nM for the second.

`C#CCNC(=O)c1ccc(-c2ccnc(Nc3cccc(CCCN4CCOCC4)c3)n2)s1` and `CNC(=O)c1cnc(Nc2ccc(N3CCN(C)CC3)cc2)nc1Nc1cccc(OC)c1` are within 1.5-fold of each other in IC50: 1000 nM for the first, 750 nM for the second.

First: Cc1cc(NC(=O)Nc2ccc(Oc3ccccc3)cc2)c2ccccc2n1
Second: Oc1ccc2nc(Nc3ccccc3)nc(NCCc3ccccc3)c2c1
The IC50 of the first is 5.6-fold higher: 840 nM for the first, 150 nM for the second.

Compared with `COc1ccc2ncn(-c3ccc(C(N)=O)c(OCc4ccccc4C(F)(F)F)c3)c2c1`, `CS(=O)(=O)c1ccc(OCCCN(Cc2ccccc2C(F)(F)F)c2ccc(C#N)c(C(F)(F)F)c2)cc1` is 1.9-fold higher in IC50: 540 nM for the first, 1020 nM for the second.

Going from `c1nc2nc3c(c(Nc4ccc5c(c4)CCC5)n2n1)CCC3` to `Nc1c2c(nc3ccc(C(=O)Nc4ccc(Br)cc4)cc13)CCCC2`, the IC50 falls from 920 nM to 150 nM (6.1-fold).

`COc1ccc(-c2ccc(NC(=O)c3cccc(Cl)c3)cc2)cc1CN(C)CCO` and `COc1ccc(C2CC(c3cccs3)=NN2C(=O)c2ccccc2)cc1OC` (stereo unspecified) are within 1.5-fold of each other in IC50: 710 nM for the first, 660 nM for the second.

Going from `CCNc1cc(C(=O)N[C@@H](Cc2ccccc2)[C@H](O)CN[C@H]2C[C@@H]3CC[C@H]2C3)cc(N2CCCCS2(=O)=O)c1` to `CC(C)CCCC(C)(C)NC[C@@H](O)[C@H](Cc1ccccc1)NC(=O)c1cccc(CCC2CC2)c1`, the IC50 rises from 240 nM to 800 nM (3.3-fold). The first is the more potent here.

`O=C(Nc1cccc(N2CCC(NCCCc3ccncc3)CC2)c1)c1cccc(C(F)(F)F)c1` and `O=C(N[C@@H](Cc1ccccc1)C(=O)NCCN1CCCCC1)c1ccc(O)c(-c2cccc(C(F)(F)F)c2)c1` are the same in IC50: 850 nM for the first, 850 nM for the second.

`N#Cc1cccc(-c2nc(NCc3cccc(C(F)(F)F)c3)nn2-c2cccc(C(F)(F)F)c2)c1` and `CCN(CC)CCN(Cc1ccc(-c2ccc(C(F)(F)F)cc2)cc1)C(=O)Cn1c(CCc2ccc(F)cc2)nc(=O)c2sccc21` are within 1.5-fold of each other in IC50: 590 nM for the first, 670 nM for the second.

`C[C@@H]([C@@H](CCCCc1ccccc1)C(=O)N[C@H](C(=O)Nc1cccnc1)C(C)(C)C)N(O)C=O` and `CN1CCCC1CCNCc1ccc(-c2ccc(CNCCc3ccccc3)cn2)cc1` (stereo unspecified) are within 1.5-fold of each other in IC50: 930 nM for the first, 1110 nM for the second.

`Cc1ccc(C(=O)Nc2ccc(F)cc2)cc1-c1nc(NC2CC(C)(C)NC(C)(C)C2)nc2c1ccc(=O)n2-c1c(F)cccc1F` and `O=C(Nc1ccc(Cl)cc1)Nc1ccc(Cn2ncc(N3CCCNCC3)c(Cl)c2=O)cc1` are within 1.5-fold of each other in IC50: 680 nM for the first, 780 nM for the second.

Going from `CC(C)CC1(C(=O)OC(C)(C)C)CC(C(=O)OC(C)(C)C)C(c2cccs2)N1C(=O)c1ccc(C(C)(C)C)cc1` (stereo unspecified) to `CC(C)(CNC(=O)[C@H]1CCCN1)c1nc(-c2ccc(Cl)c(O)c2)c(-c2ccncc2)[nH]1`, the IC50 rises from 140 nM to 1270 nM (9.1-fold).

`NC(N)=NN=CC(=O)Nc1ccc(Cl)cc1` and `O=C(/C=C/c1ccc(Cl)c(Cl)c1)N1CCC(CCN2CCc3[nH]c4ccccc4c3C2)CC1` are within 1.5-fold of each other in IC50: 810 nM for the first, 890 nM for the second.

Going from `Cc1ccc2c(O)c([N+](=O)[O-])c(=O)[nH]c2c1` to `COc1cc(C=C(C2=NC(=O)CS2)c2nc3cccnc3n2C)ccc1O`, the IC50 rises from 420 nM to 1000 nM (2.4-fold).

`Cc1cc(NCCCN2CCCC2=O)n2c(nc3ccccc32)c1C#N` and `Cc1cc2ncn(-c3nccc(NCc4cccnc4)n3)c2cc1C` are within 1.5-fold of each other in IC50: 860 nM for the first, 660 nM for the second.

For `CN1CCC(OC(=O)c2cc3cc(-c4ccccc4)ccc3n2S(=O)(=O)c2ccccc2)CC1`, the IC50 was 1090 nM.
